Source: paper PMC12064818, “A general assay platform to study protein pharmacology using ligand-dependent structural dynamics” (Nature Communications, 2025)

Target: T1, FLuc-C-HiBiT (Photinus pyralis, UniProt P08659)
T1 construct: firefly luciferase with C-terminal HiBiT tag, E. coli expressed
Test: biochemical
Conditions: enzyme activity, 10 uM ATP; read-out: IC50 or SDR50 (mM) / FLuc E
Description: The enzyme activity of FLuc-N-HiBiT, FLuc-C-HiBiT, and FLuc-C-NLuc was measured similar to P. pyralis firefly luciferase (FLuc) as previously described. […] Compounds and controls were added to each plate as described in Supplementary Data 8 with a Hornet pintool system (Wako Automation). Compounds were incubated with respective enzymes for 30–60 min at room temperature protected from light and covered by solid metal lid to prevent evaporation. […] Luciferin was incubated with FLuc enzyme for 5 min before FLuc activity was then measured on a ViewLux CCD imager (PerkinElmer), with exposure times up to ten seconds with medium to high gain settings. Data were normalized to average no enzyme control as 100% enzyme inhibition and average DMSO neutral control. See Supplementary Table 4 for additional details. As a proof-of-concept target, we appended the sensor protein or corresponding α-peptide to either the N- or C-terminus of the target protein firefly luciferase (FLuc), an ATP cofactor-dependent monooxygenase (Supplementary Fig. 1a) having a broad, well-characterized and accessible ligand pharmacology. For initial characterization of the SDR concept, either NLuc or the 11 amino acid HiBiT tag (α-peptide) and complementary 18 kDa LgBiT subunit (ω-fragment), which self-assemble to reconstitute functional NLuc enzyme[24] were tested. In contrast to the ATP-dependent bioluminescent FLuc enzyme, NLuc generates a bright bioluminescence in an ATP-independent manner from the direct oxidation of furimazine (Supplementary Fig. 1b). […] Next, FLuc-C-NLuc, FLuc-N-HiBiT or FLuc-C-HiBiT were assayed with the same inhibitor in an SDR assay format by monitoring bioluminescence from NLuc or its reconstitution by α-complementation with LgBiT. Measurements of NLuc activity were made either in the absence or presence of the FLuc ATP cofactor, as NLuc bioluminescence is ATP-independent.

T1 sequence (P08659 whole entry, looked up): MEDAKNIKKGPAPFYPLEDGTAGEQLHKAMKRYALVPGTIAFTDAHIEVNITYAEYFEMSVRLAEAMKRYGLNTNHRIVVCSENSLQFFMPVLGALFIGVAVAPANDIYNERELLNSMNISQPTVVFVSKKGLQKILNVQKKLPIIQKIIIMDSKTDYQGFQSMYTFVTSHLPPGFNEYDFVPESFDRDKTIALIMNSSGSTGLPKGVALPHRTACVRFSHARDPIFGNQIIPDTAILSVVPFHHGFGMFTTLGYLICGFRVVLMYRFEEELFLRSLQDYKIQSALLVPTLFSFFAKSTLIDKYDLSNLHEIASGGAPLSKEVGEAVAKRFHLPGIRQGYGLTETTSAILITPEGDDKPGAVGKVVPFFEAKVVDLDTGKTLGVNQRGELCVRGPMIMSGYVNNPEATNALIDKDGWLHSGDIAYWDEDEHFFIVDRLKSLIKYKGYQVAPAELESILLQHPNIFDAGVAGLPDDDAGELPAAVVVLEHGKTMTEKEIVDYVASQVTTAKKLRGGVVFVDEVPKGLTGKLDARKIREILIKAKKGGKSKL

SMILES	IC50
Cc1ccn2c(Nc3ccc(C(C)C)cc3)c(-c3cccs3)nc2c1 [NCGC00106676-01]	11.1 µM
Cc1cccc(NC(=O)Nc2ccc(F)cc2)n1 [NCGC00106833-01]	12.4 µM
CCOc1cccc(NC(=O)CSc2ncc(-c3ccccc3)[nH]2)c1 [NCGC00106968-01]	> 30 µM
Cc1ccc(NC(=O)c2ncn(-c3ccccc3)n2)cc1Cl [NCGC00107303-01]	4.95 µM
CCc1cccc(NCc2ccccc2-c2nnc(-c3ccccc3Cl)o2)c1 [NCGC00107400-01]	> 30 µM
Fc1ccc(NCc2ccccc2-c2nnc(-c3ccccc3Cl)o2)cc1Cl [NCGC00107402-01]	15.7 µM
CC(=O)c1cccc(NC(=O)c2nc3ccccc3n(C)c2=O)c1 [NCGC00107713-01]	3.13 µM
CCOC(=O)c1cc(-c2ccccc2)nn1Cc1ccccc1 [NCGC00108381-01]	> 30 µM
COc1ccccc1-c1cc2nc(C)c(CCC(=O)O)c(C)n2n1 [NCGC00108411-01]	12.4 µM
Cc1ccc(N2C(=O)c3[nH]nc(C)c3C2c2ccc(Cl)cc2)cc1 (stereo not drawn) [NCGC00108483-01]	12.4 µM
CCc1ccc(-c2nc(CSCC(=O)NCc3ccc(C)cc3)c(C)o2)cc1 [NCGC00109429-01]	14 µM
Cc1ccc(NC(=O)CCc2c(C)nc3cc(-c4ccccc4)nn3c2C)cc1F [NCGC00109926-01]	11.1 µM
CCOc1ccc(NC(=O)CCc2c(C)nc3cc(-c4ccc(Cl)cc4)nn3c2C)cc1 [NCGC00110024-01]	2.79 µM
Cc1nc2cc(-c3cccc(F)c3)nn2c(C)c1CCC(=O)NC1CCCCC1 [NCGC00110095-01]	8.81 µM
CCOC(=O)c1ccc(NC(=O)CSc2nnc(CNC(=O)c3ccc(OC)cc3)n2CC)cc1 [NCGC00110413-01]	12.4 µM
CCOc1ccc(-c2cc(CCCC(=O)NCCc3ccc(OC)c(OC)c3)no2)cc1 [NCGC00110832-01]	9.89 µM
CCOc1ccc(-c2cc(CCCC(=O)NCCc3ccc(OCC)c(OCC)c3)no2)cc1 [NCGC00110850-01]	3.51 µM
CCOc1ccc(-c2cc(CCCC(=O)NCCc3ccc(SC)cc3)no2)cc1 [NCGC00110854-01]	3.13 µM
O=C(Nc1c(C(=O)Nc2ccc(F)cc2)oc2ccccc12)c1cc2ccccc2o1 [NCGC00111604-01]	7.85 µM
CCc1ccc2nc(N3CCC(C(=O)O)CC3)sc2c1 [NCGC00112332-01]	0.0351 µM
Cc1c(C(=O)NCc2cccc(Br)c2)oc2ccc3c(c12)C(=O)CC(C)(C)O3 [NCGC00113428-01]	11.1 µM
O=C(c1ccc(CSc2nc3ccncc3n2Cc2ccccc2F)cc1)N1CCCCC1 [NCGC00113496-01]	14 µM
Cc1cccc(CNC(=O)Cc2csc3ccccc23)c1 [NCGC00113581-01]	> 30 µM
CCOC(=O)c1ccc(NC(=O)c2nsc3ccccc23)cc1 [NCGC00113675-01]	3.51 µM
COc1ccc(CNC(=O)Cn2cccc2C(=O)c2ccccc2C)cc1 [NCGC00113808-01]	> 30 µM

SMILES	IC50
O=C(Nc1ccccc1F)c1ccc(-c2ccccc2)s1 [NCGC00114318-01]	2.48 µM
Cc1cccc(NC(=O)c2ccc(-c3ccccc3)s2)c1 [NCGC00114320-01]	2.79 µM
C#CCn1c(/C=C/c2ccc(Cl)cc2)nc2ccccc21 [NCGC00114864-01]	0.624 µM
COc1ccc(-c2nc3c4cnn(-c5ccccc5F)c4ncn3n2)cc1 [NCGC00115088-01]	0.785 µM
COc1cccc(-c2noc(COc3ccccc3Cl)n2)c1 [NCGC00115123-01]	11.1 µM
Brc1ccccc1-n1ncc2c1ncn1nc(Cc3ccccc3)nc21 [NCGC00115124-01]	> 30 µM
COc1cccc(NC(=O)CCc2nc(-c3ccc(C(C)(C)C)cc3)no2)c1 [NCGC00115609-01]	7 µM
CC(=O)Nc1ccc(NC(=O)CCCc2nc(-c3ccc(C(C)(C)C)cc3)no2)cc1 [NCGC00116112-01]	4.95 µM
COc1cccc(OCc2nc3ccccc3n2Cc2ccccc2)c1 [NCGC00116123-01]	> 30 µM
CC(=O)c1nn(-c2ccc(OC(F)(F)F)cc2)nc1Nc1ccccc1 [NCGC00116600-01]	0.7 µM
CC(=O)c1cccc(Nc2nn(-c3ccc(OC(F)(F)F)cc3)nc2C(C)=O)c1 [NCGC00116630-01]	4.42 µM
Cc1ccc(C2=Nc3cc(Cl)ccc3NC(c3ccccc3)=N2)cc1 [NCGC00116648-01]	> 30 µM
CCOc1ccc(-n2nc(CO)c(C(=O)NCc3ccccn3)n2)cc1 [NCGC00117131-01]	11.1 µM
CCOc1ccc(-n2nc(CO)c(C(=O)NCc3cccc(OC)c3)n2)cc1 [NCGC00117153-01]	11.1 µM
CCc1ccc(-n2nc(CO)c(C(=O)NC)n2)cc1 [NCGC00117187-01]	17.6 µM
Cc1ccc2sc(-c3ccc(N)cc3)nc2c1 [NCGC00117377-01]	0.279 µM
CCCc1nn2cc(-c3ccc(C)c(C)c3)nc2s1 [NCGC00117454-01]	0.624 µM
CCCCCc1nn2cc(-c3ccccc3)nc2s1 [NCGC00117458-01]	0.624 µM
CCC(CC)c1nn2cc(-c3ccccc3)nc2s1 [NCGC00117460-01]	0.881 µM
CCOc1ccc(-c2cn3nc(CC(C)C)sc3n2)cc1 [NCGC00117462-01]	4.95 µM
COc1cccc(-c2cn3ncsc3n2)c1 [NCGC00117781-01]	11.1 µM
COc1ccc(OCC(=O)Nc2nc(-c3ccc(Br)cc3)ns2)cc1 [NCGC00118248-01]	> 30 µM
Cc1ccc(/C=C/C(=O)N2CCC(c3nc4ccccc4o3)CC2)cc1 [NCGC00118334-01]	11.1 µM
COC(=O)c1c(-c2cccs2)csc1NC(=O)c1ccc(Br)cc1 [NCGC00118335-01]	11.1 µM

Continued, values first:

IC50	SMILES
12.4 µM	Cc1ccc(C(=O)O)cc1Nc1nc2ccccc2n2nnnc12 [NCGC00106886-01]
12.4 µM	CCn1c(=O)c(C(=O)Nc2ccc(C(C)=O)cc2)nc2ccccc21 [NCGC00107725-01]
> 30 µM	COc1ccc(Nc2cc(C(=O)NC3CCC(C)CC3)c3ccccc3n2)cc1OC (stereo not drawn) [NCGC00108132-01]
7.85 µM	CC(=O)c1ccc(NC(=O)CCc2c(C)nc3cc(-c4ccc(Cl)cc4)nn3c2C)cc1 [NCGC00110026-01]
9.89 µM	COC(=O)c1ccccc1NC(=O)CCc1c(C)nc2cc(-c3ccc(Cl)cc3)nn2c1C [NCGC00110028-01]
8.81 µM	CCOC(=O)c1cccc(NC(=O)CCc2c(C)nc3cc(-c4ccc(Cl)cc4)nn3c2C)c1 [NCGC00110030-01]
1.11 µM	COc1ccc(C)cc1NC(=O)c1ccc2c(Cl)c3c(nc2c1)CCC3 [NCGC00111420-01]
9.89 µM	COc1cccc(C(=O)Nc2cccc(OCc3cc(=O)n4c5c(sc4n3)CCCC5)c2)c1 [NCGC00111495-01]
> 30 µM	COc1ccc(CNC(=O)c2ccc3c(c2)N=C(C)c2c(C)ccc(C)c2S3)cc1 [NCGC00112026-02]
2.79 µM	Cc1cc(F)ccc1NC(=O)c1csc2c1CCC(C)C2 (stereo not drawn) [NCGC00112512-01]
11.1 µM	COc1ccc(CCNc2nc3ccccc3c3nc(-c4cccc(C)c4)nn23)cc1OC [NCGC00112564-01]
7.85 µM	COc1cccc(CNc2nc3ccccc3c3nc(-c4cccc(C)c4)nn23)c1 [NCGC00112594-01]
15.7 µM	CCOC(=O)c1ccc(NC(=O)c2csc3c2CCCC3)cc1 [NCGC00112858-01]
5.56 µM	COc1ccc(CCNC(=O)C2CCCN(c3nc4c(C)cc(C)cc4s3)C2)cc1OC (stereo not drawn) [NCGC00113075-01]
7 µM	CCOc1cc2sc(N3CCC(C(=O)Nc4ccc(C(C)C)cc4)CC3)nc2cc1Br [NCGC00113423-01]
> 30 µM	COc1ccccc1CNC(=O)c1ccc2nc(N3CCCCC3)sc2c1 [NCGC00113612-01]
8.81 µM	Cc1ccc(NC(=O)c2ccc3snnc3c2)cc1C [NCGC00114783-01]
0.881 µM	COc1ccc(C(=O)Nc2noc3ccccc23)cc1 [NCGC00115156-01]
11.1 µM	O=C(Nc1onc2c1CCCC2)c1ccccc1 [NCGC00115884-01]
0.989 µM	Cc1ccc(C(=O)Nc2onc3c2CCCC3)cc1 [NCGC00115902-01]
1.97 µM	COc1ccc(C(=O)Nc2onc3c2CCCC3)cc1 [NCGC00115906-01]
9.89 µM	COc1ccccc1C(=O)Nc1onc2c1CCCC2 [NCGC00115908-01]
1.97 µM	CCOc1ccc(C(=O)Nc2onc3c2CCCC3)cc1 [NCGC00115912-01]
1.97 µM	CC(C)COc1ccc(C(=O)Nc2onc3c2CCCC3)cc1 [NCGC00115916-01]
12.4 µM	Cc1cccc(OCCn2nnc3sc4c(c3c2=O)CCCC4)c1 [NCGC00117282-01]
15.7 µM	COC(=O)c1c(-c2cccs2)csc1NC(=O)c1ccc(C)cc1 [NCGC00118339-01]
2.48 µM	Cc1cccc(C(=O)Nc2nc3c(s2)CCCC3)c1 [NCGC00118410-01]
0.556 µM	O=C(Nc1nc2c(s1)CCCC2)c1ccccc1F [NCGC00118438-01]
9.89 µM	COc1cccc(C(=O)Nc2ccc3nc(SCC(=O)N4CCOCC4)sc3c2)c1 [NCGC00118677-01]
